This note sets out measurements from patent US20250114338A1, “TETRAHYDRO-PYRIDO[3,4-b]INDOLE ESTROGEN RECEPTOR MODULATORS AND USES THEREOF” (Genentech, Inc., priority 2014, published 2025).

The structures appear in SMILES notation.

One assay has as its system immature rat uterus. Description: Immature Uterine Wet Weight Assay, agonist mode (Example 906). Type of assay: in vivo. To be noted: dosed PO, QDx3, uterine wet weight:body weight ratio, endometrial height. As to the method: All of the exemplary Formula I compounds in Tables 1 and 2 were made and characterized by LCMS [M+H]^+ (liquid chromatography mass spectroscopy) with detection of parent ion. […] ER-alpha MCF7 HCS Sinf (%) values in Table 1 were measured by the Breast Cancer Cell ERa High Content Fluorescence Imaging Degradation Assay of Example 901. […] RTP, 25 (3):226-31). […] Where more than one name is associated with a Formula I compound or intermediate, the chemical structure shall define the compound. Female immature CD-IGS rats (21 days old upon arrival) are treated for three days. Animals are dosed daily for three days. […] For Agonist Mode, Vehicle or test compound is administered orally by gavage. On the fourth day 24 hours after dose, plasma is collected for pharmacokinetic analysis. Immediately following plasma collection, the animals are euthanized and the uterus removed and weighed. […] Stained tissues are analyzed and read by a board certified pathologist. Uteri and ovaries from 4 animals per group are flash frozen in liquid N2 for transcriptional analysis, examining a select set of genes modulated by the estrogen receptor. […] U.S. Pat. […] Vehicle and Vehicle plus ethynyl estradiol (EE). All compounds were dosed PO, QDx3. Uterine Wet Weight (UWW): Body Weight ratios were calculated. The mean Endometrial Height of Uterine cross sections were measured by histology. Endometrial cell height was measured from the basement membrane to the apical (luminal) surface using a slide viewer at 20× magnification. Obliquely cut areas were avoided.

In assay [1] the target is estrogen receptor alpha (ESR1) in MCF7 breast cancer cells (Homo sapiens (Human), UniProt P03372). Description: Breast Cancer Cell ERa High Content Fluorescence Imaging Degradation Assay (Example 901). The note with it: 4 hours, plateau of maximal effect, 0% = DMSO, 100% change = 5 nM Fulvestrant. It is filed as cell-based. As to the method: Where more than one name is associated with a Formula I compound or intermediate, the chemical structure shall define the compound. […] Cell plates were incubated at 37° C., for 4 hours. Fixation and permeabilization were carried out using a Biotek EL406 plate washer and dispenser as follows. […] Well contents were aspirated and washed 3 times with 100 μL/well of PBS. […] Samples were incubated for 2 hours at room temperature. […] Samples were incubated for 2 hours at room temperature. […] Quantitative fluorescence imaging of ESR1 was carried out using a Cellomics Arrayscan V (Thermo). […] Channel 1 (DNA stain) was used to define the nuclear region (Circ). […] The “Robust Fit” method was used to define the inflexion point of curve (EC50) and the plateau of the maximal effect (Sinf).
estrogen receptor alpha (ESR1) in MCF7 breast cancer cells, sequence (P03372 whole entry): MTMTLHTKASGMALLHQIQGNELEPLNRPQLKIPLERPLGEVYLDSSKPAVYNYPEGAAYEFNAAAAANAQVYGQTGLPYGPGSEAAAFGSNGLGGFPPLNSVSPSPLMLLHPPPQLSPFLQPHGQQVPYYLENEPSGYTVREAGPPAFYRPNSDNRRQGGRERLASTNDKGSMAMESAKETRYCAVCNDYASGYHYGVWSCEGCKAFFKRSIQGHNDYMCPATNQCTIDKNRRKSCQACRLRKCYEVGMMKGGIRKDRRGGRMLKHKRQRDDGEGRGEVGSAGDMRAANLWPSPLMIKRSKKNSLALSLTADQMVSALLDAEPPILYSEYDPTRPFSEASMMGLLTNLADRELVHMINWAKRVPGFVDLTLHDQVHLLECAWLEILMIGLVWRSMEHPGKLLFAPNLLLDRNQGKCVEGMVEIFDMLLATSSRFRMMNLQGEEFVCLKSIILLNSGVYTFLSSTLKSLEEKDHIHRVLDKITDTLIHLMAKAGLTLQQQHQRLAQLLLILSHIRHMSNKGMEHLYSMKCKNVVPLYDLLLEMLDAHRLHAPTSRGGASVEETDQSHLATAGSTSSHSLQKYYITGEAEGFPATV

For the compound `C[C@@H]1Cc2c([nH]c3ccccc23)[C@@H](c2c(F)cc(/C=C/C(=O)O)cc2F)N1CC(C)(C)F` [AZD9496, reference compound], in the assay on immature rat uterus, the “agonist mode UWW assay: antagonist / partial agonist” value was “partial agonist”.
Consider `C[C@@H]1Cc2c([nH]c3ccccc23)[C@@H](c2c(F)cc(OC3CN(CCCF)C3)cc2F)N1CC(C)(C)F` [Example 101, (1R,3R)-1-(2,6-difluoro-4-((1-(3-fluoropropyl)azetidin-3-yl)oxy)phenyl)-2-(2-fluoro-2-methylpropyl)-3-methyl-2,3,4,9-tetrahydro-1H-pyrido[3,4-b]indole], for which the “ER-alpha MCF7 HCS Sinf (%)” value in assay [1] was −100%. The “agonist mode UWW assay: antagonist / partial agonist” value with immature rat uterus was “antagonists”.
On to `C[C@@H]1Cc2c([nH]c3ccccc23)[C@@H](c2c(F)cc(OCCN3CC(CF)C3)cc2F)N1CC(C)(C)F` [Example 102, (1R,3R)-1-(2,6-difluoro-4-(2-(3-(fluoromethyl)azetidin-1-yl)ethoxy)phenyl)-2-(2-fluoro-2-methylpropyl)-3-methyl-2,3,4,9-tetrahydro-1H-pyrido[3,4-b]indole], for which, in assay [1], the “ER-alpha MCF7 HCS Sinf (%)” value is −98.9%. In the assay on immature rat uterus, the “agonist mode UWW assay: antagonist / partial agonist” value is reported as “antagonists”.
